Results as given in patent US10543183B2, “Treatment and diagnosis of melanoma” (The Rockefeller University, priority 2012, dated 2020).
Structures can show the parent of a compound that is named as a salt.

Assays:
[1] = system: ApoE promoter fused to ME.1 or ME.2 in MeWo cells; experiment: ApoE promoter activity assay (luciferase reporter); type: cell-based, human; details: 1 μM, 24 hours
From the text: The ApoE promoter, consisting of a sequence spanning 980 base pairs upstream and 93 base pairs downstream of the ApoE gene, was cloned into a pGL3-Basic vector (E1751, Promega Corporation, Madison, Wis.) upstream of the firefly luciferase gene using NheI and SacI restriction enzymes. Then, multi-enhancer elements 1 (ME.1) and 2 (ME.2) were cloned directly upstream of the ApoE promoter using MluI and […] restriction enzymes. To assess ApoE promoter- and ME.1/ME.2-driven transcriptional activation by LXR agonists, 5×10^4 MeWo cells were seeded into a 24-well plate. The following day, 100 ng of pGL3-ME.1/ME.2-ApoE promoter construct and 2 ng of pRL-CMV renilla luciferase construct (E2261, Promega) were co-transfected into cells in the presence of DMSO, GW3965, or T0901317 at 1 μM, each condition in quadruplicate. To assess transcriptional activation by LXRα or LXRβ, 5×10^4 MeWo cells expressing a control shRNA or shRNA targeting LXRα or LXRβ were seeded into a 24-well plate. […] After 24 hours, cells were lysed, and cell lysate was analyzed for firefly and renilla luciferase activity using the Dual Luciferase Assay System (E1960, Promega) and a Bio-Tek Synergy NEO Microplate Reader. Firefly luciferase signal was normalized to renilla luciferase signal and all data are expressed relative to the luciferase activity ratio measured in the DMSO-treated control cells.

[2] = system: ApoE expression in systemic tissues; experiment: systemic ApoE expression in mouse tissues (western blot, qRT-PCR); type: in vivo; details: 10 days; for ApoE protein expression in systemic adipose, lung, and brain tissues: chow 20 mg/kg; for ApoE transcript levels in circulating white blood cells: diet 20 mg/kg
Method: Mouse lung and brain tissue samples were homogenized on ice in RIPA buffer (Sigma-Aldrich) supplemented with protease inhibitors (Roche). Mouse adipose tissue was homogenized on ice in TNET buffer (1.5 mM Tris pH 7.5, 150 mM NaCl, 2 mM EDTA 1% triton, protease inhibitors). Total protein lysate (2 μg) was separated by SDS-PAGE, transferred to PVDF membrane, and blotted with an anti-mouse ApoE (ab20874, Abcam) and anti-tubulin α/β (2148, Cell Signaling) antibodies. RNA was extracted from whole cell lysates using the Total RNA Purification Kit (17200, Norgen, Thorold, Canada). 600 ng of total RNA was then reverse transcribed into cDNA using the cDNA First-Strand Synthesis Kit (18080-051, Invitrogen), and quantitative real-time PCR amplification was performed as previously described (Pencheva et al., 2012) using an ABI Prism 7900HT Real-Time PCR System (Applied Biosystems, Austin, Tex.). Each PCR reaction was carried out in quadruplicates. Gene expression was normalized to GAPDH, which was used as an endogenous control.

[3] = system: B16F10 mouse melanoma cells; experiment: subcutaneous B16F10 tumor growth in mice; type: in vivo; details: for primary tumor growth in vivo (FIG. 21): mouse; for suppression of tumor growth by B16F10 cells: 20 mg/kg, tumors 5-10 mm3 at start, immunocompetent mice
[4] = system: breast, renal, pancreatic and lung cancer cell lines; experiment: trans-well matrigel invasion assay, other cancer types; type: cell-based, human
Method: The ability of cancer cells to invade through matrigel in vitro was tested by using a trans-cell matrigel invasion chamber system (354480, BD Biosciences). Various cancer cell lines were serum-starved overnight in media containing 0.2% FBS. The following day, invasion chambers were pre-equilibrated prior to the assay by adding 0.5 mL of starvation media to the top and bottom wells. Meanwhile, cancer cells were trypsinized and viable cells were counted using the trypan blue dead cell exclusion dye. Cancer cells were then resuspended at a concentration of 1×10^5 cells/1 mL starvation media, and 0.5 mL of cell suspension, containing 5×10^4 cells, was seeded into each trans-well. […] The basal side of each insert was imaged using an inverted fluorescence microscope (Zeiss Axiovert 40 CFL) at 5× magnification, and the number of DAPI-positive cells was quantified using ImageJ.
The cells were serum starved for 16 hours in 0.2% FBS media in the presence of DMSO or GW3965. […] Meanwhile, cancer cells were trypsinized and viable cells were counted using trypan blue. […] The basal side of each insert was imaged using an inverted fluorescence microscope (Zeiss Axiovert 40 CFL) at 5× magnification, and the number of DAPI-positive cells was quantified using ImageJ.

[5] = system: MeWo, SK-Mel-2, SK-Mel-334.2, SK-Mel-239 human melanoma cells; experiment: subcutaneous human melanoma tumor growth in immunocompromised mice; type: in vivo, mouse

| Compound | activity of luciferase reporter containing the ApoE promoter fused to ME.1 or ME.2 [1] | ApoE protein expression in systemic adipose, lung, and brain tissues [2] | ApoE transcript levels in circulating white blood cells [2] | primary tumor growth in vivo (FIG. 21) [3] | suppression of tumor growth by B16F10 cells ([3]; oral) [%] | tumor cell invasion across breast, renal cell and pancreatic cancer ([4]; 100 μg/mL at start of assay) | overall survival time of tumor-bearing mice ([5]; B16F10, MeWo, SK-Mel-334.2 tumors, chow 100 mg/kg) | suppression of growth of SK-Mel-239 vemurafenib-resistant line ([5]; diet 100 mg/kg) [%] | survival of mice bearing vemurafenib-resistant melanoma burden ([5]; diet 100 mg/kg) | tumor growth inhibition, MeWo ([5]; oral administration) [%] | tumor growth inhibition, SK-Mel-2 ([5]; oral administration) [%] | tumor growth inhibition, SK-Mel-334.2 ([5]; oral administration) [%] | growth of in vivo-derived DTIC-resistant MeWo tumors ([5]; oral, diet 100 mg/kg) | tumor cell invasion of renal, pancreatic and lung cancer cells ([4]; RCC, PANC1, H460 cells, 1 μM for 72 hours) | suppression of tumor growth in mice genetically inactivated for ApoE ([3]; ApoE−/− mice, diet 20 mg/kg) | tumor growth inhibition upon LXRα inactivation ([3]; LXRα−/− mice, diet 20 mg/kg) | ability to suppress melanoma tumor growth upon genetic ablation of systemic LXRβ ([3]; LXRβ−/− mice, diet 20 mg/kg) | reduction in tumor growth by B16F10 cells ([3]; oral, 100 mg/kg) [%] | reduction in growth of established large B16F10 tumors ([3]; tumors ~150 mm3 at start, chow 150 mg/kg) |
| --- | --- | --- | --- | --- | --- | --- | --- | --- | --- | --- | --- | --- | --- | --- | --- | --- | --- | --- | --- |
| O=S(=O)(c1ccccc1)N(CC(F)(F)F)c1ccc(C(O)(C(F)(F)F)C(F)(F)F)cc1 [T0901317 1] | enhance | significantly elevated | upregulated | inhibit | 61 | – | – | – | – | – | – | – | – | – | – | – | – | – | – |
| recombinant ApoE3: recombinant human ApoE3 (4696, BioVision) | – | – | – | – | – | inhibited | – | – | – | – | – | – | – | – | – | – | – | – | – |
| O=C(O)Cc1cccc(OCCCN(Cc2cccc(C(F)(F)F)c2Cl)CC(c2ccccc2)c2ccccc2)c1 [GW3965 2, 3-[3-[N-(2-Chloro-3-trifluoromethylbenzyl)-(2,2-diphenylethyl)amino]propyloxy] phenylacetic acid hydrochloride] | enhance | significantly elevated | upregulated | inhibit | 67 | – | substantially prolonged | 72 | significantly prolonged | 70 | 49 | 73 | strongly inhibited | inhibition | completely ineffective | had no effect | blocked | 80 | roughly 50% |
